Values after ≈ are worked out from the molar mass of the structure shown. Where two headings read alike, the source gives them in different places.

Here are results for four compounds from patent US20080262097A1, “Formulations” (priority 2005, published 2008).

The test system of assay [1] is S. aureus ATCC 29213. Description: MIC assay. Type of assay: cell-based, Staphylococcus aureus. The note with it: S. aureus ATCC 29213. As to the method: 1. Staphylococcus aureus—the principal staphylococcal test micro-organism used in these studies was Staphylococcus aureus ATCC 29213. This strain is the one recommended for QC/QA purposes in Minimum Inhibitory Concentration (MIC) assays by the US Clinical and Laboratory Standards Institute (formerly the NCCLS), an FDA-recognised body. […] The staphylococci and enterococci were cultured and maintained on Mueller-Hinton Medium (agar and broth) at pH 7.2; they were incubated aerobically at 37° C. for 24 hours. This is a standard international method for quantitatively assessing the antimicrobial activity of a compound in a liquid medium. The method used a 96-well microtitre plate, capable of holding about 200 μl of liquid per well. […] The culture media were as described above for the relevant test organisms. The wells were inoculated with a liquid suspension of freshly grown micro-organism and incubated under the conditions described above. After incubation, the microtitre plate was examined visually (with the aid of a light box) for cell pellets in and/or opaque wells, which would indicate microbial growth. The MIC value was recorded as the lowest concentration of test compound required to inhibit microbial growth, ie, the lowest concentration for which the liquid in the well remained clear. The assays were conducted in duplicate and included both negative (culture medium only) and positive (culture medium, diluting solvent and inoculum) controls.

Assay [2] deals with S. aureus ATCC 29213. Nature of the assay: MBC assay. Type of assay: cell-based, Staphylococcus aureus. The note with it: S. aureus ATCC 29213. As to the method:
1. Staphylococcus aureus—the principal staphylococcal test micro-organism used in these studies was Staphylococcus aureus ATCC 29213. This strain is the one recommended for QC/QA purposes in Minimum Inhibitory Concentration (MIC) assays by the US Clinical and Laboratory Standards Institute (formerly the NCCLS), an FDA-recognised body. […] The staphylococci and enterococci were cultured and maintained on Mueller-Hinton Medium (agar and broth) at pH 7.2; they were incubated aerobically at 37° C. for 24 hours. This assay, normally carried out after an MIC assay, determines the minimum concentration of a compound that is lethal to the micro-organism being tested. […] These samples were then individually sub-cultured on non-selective agar medium, under the incubation conditions described above. Following incubation they were examined visually for bacterial growth.

The subject of assay [3] is S. aureus ATCC 29213. Description: Disc diffusion assay (DDA). The format is cell-based, Staphylococcus aureus. An excerpt:
1. Staphylococcus aureus—the principal staphylococcal test micro-organism used in these studies was Staphylococcus aureus ATCC 29213. This strain is the one recommended for QC/QA purposes in Minimum Inhibitory Concentration (MIC) assays by the US Clinical and Laboratory Standards Institute (formerly the NCCLS), an FDA-recognised body. S. aureus ATCC 29213 is susceptible to beta-lactam antibiotics such as methicillin and to many other antibiotics in clinical use worldwide today. The staphylococci and enterococci were cultured and maintained on Mueller-Hinton Medium (agar and broth) at pH 7.2; they were incubated aerobically at 37° C. for 24 hours. A sterile paper disc was impregnated with a sample of the test compound and a minimum of 30 minutes allowed for the solvents to evaporate as far as possible. The disc was then placed on an agar plate onto which the test micro-organism had been inoculated. The plate was then incubated under the conditions described above, following which it was examined visually for signs of bacterial growth. If the test compound had antimicrobial activity, a circular zone of no growth would be obtained around the disc. The diameter of this zone of “inhibition” was measured using a ProtoCOL™ automated zone sizer (Synbiosis, Cambridge, UK). In general, a greater diameter and/or area of the zone of inhibition indicates a greater antimicrobial activity in the relevant test compound, although other factors such as test compound mobility through the agar gel may also influence the result. […] The exceptions were the thymoquinone assays, in which only 50 μg of the benzoquinone was used.
(A growth-free zone around the sample is the usual read-out of agar diffusion tests.)

For assay [4], the system named is P. acnes NCTC 737. Nature of the assay: MIC assay. Type of assay: cell-based, Propionibacterium acnes. How it is done:
(§1) 2. Propionibacterium spp.—the principal propionibacterial strain used in these studies was Propionibacterium acnes NCTC 737. This is the type strain of the genus; it is fully susceptible to antibiotics.
(§2) The Propionibacterium spp organisms were cultured and maintained on Wilkins-Chalgren Anaerobe Medium (agar and broth) at pH 6.0; cultures were incubated anaerobically at 37° C. for 72 hours.
This is a standard international method for quantitatively assessing the antimicrobial activity of a compound in a liquid medium. The method used a 96-well microtitre plate, capable of holding about 200 μl of liquid per well. […] The culture media were as described above for the relevant test organisms.
The wells were inoculated with a liquid suspension of freshly grown micro-organism and incubated under the conditions described above. After incubation, the microtitre plate was examined visually (with the aid of a light box) for cell pellets in and/or opaque wells, which would indicate microbial growth. The MIC value was recorded as the lowest concentration of test compound required to inhibit microbial growth, ie, the lowest concentration for which the liquid in the well remained clear.
The assays were conducted in duplicate and included both negative (culture medium only) and positive (culture medium, diluting solvent and inoculum) controls.

Assay [5] relates to P. acnes NCTC 737. Nature of the assay: MBC assay. The format is cell-based, Propionibacterium acnes. As to the method: as §1, §2
This assay, normally carried out after an MIC assay, determines the minimum concentration of a compound that is lethal to the micro-organism being tested.
These samples were then individually sub-cultured on non-selective agar medium, under the incubation conditions described above. Following incubation they were examined visually for bacterial growth.

The subject of assay [6] is P. acnes NCTC 737. Description: Disc diffusion assay (DDA). The format is cell-based, Propionibacterium acnes. Conditions: 200 μg per disc. As to the method: (§3) 2. Propionibacterium spp.—the principal propionibacterial strain used in these studies was Propionibacterium acnes NCTC 737.
as §2
A sterile paper disc was impregnated with a sample of the test compound and a minimum of 30 minutes allowed for the solvents to evaporate as far as possible. The disc was then placed on an agar plate onto which the test micro-organism had been inoculated. The plate was then incubated under the conditions described above, following which it was examined visually for signs of bacterial growth. […] The diameter of this zone of “inhibition” was measured using a ProtoCOL™ automated zone sizer (Synbiosis, Cambridge, UK).
The area of the zone of inhibition was calculated from the measured zone diameter (D) using the formula π(D/2)^2.
(§4) For all (S)DDA assays, 200 μg of each compound was loaded onto each disc.

Assay [7] concerns P. acnes NCTC 737. Description: Synergy disc diffusion assay (SDDA). The format is cell-based, Propionibacterium acnes. Conditions: for SDDA area increase / SDDA increase: quinone + BP; for SDDA area increase: over larger single-compound zone; for SDDA increase: over larger single-compound zone diameter; for SDDA with BP: quinone combined with BP on one disc, 200 μg of each. As to the method:
as §3, §2
This is a variation on the DDA method, in which two compounds are tested together for their combined antimicrobial activity. It provides a qualitative indication as to whether the compounds are likely to interact synergistically.
Two test compounds A and B were placed on a single paper disc and the above described DDA procedure repeated.
Each of the quinones was then subjected, in combination with BP, to the SDDA assay described above.
as §4

[8] abbreviates: Staphylococcus aureus, ATCC29213, Table 1 (Example 1), read-out: MIC.
Where [9] appears, read: Staphylococcus aureus, ATCC29213, Table 1 (Example 1), read-out: MBC.
Setting [10] is: Table 1, zone diameter, 200 μg per disc (thymoquinone 50 μg).
The mark [11] stands for this setting: Cutibacterium acnes, NCTC737, P. acnes NCTC 737 (resistance None), Table 9 (Example 8).
Setting [12] is: Cutibacterium acnes, NCTC737, P. acnes NCTC 737, Table 7 (Example 6).
Where [13] appears, read: P. acnes NCTC 737, Table 7 (Example 6).
Where [14] appears, read: Cutibacterium acnes, NCTC737, P. acnes NCTC 737, Table 7 (Example 6), read-out: MIC.
Where [15] appears, read: Cutibacterium acnes, NCTC737, P. acnes NCTC 737, Table 7 (Example 6), read-out: MBC.

As for `O=C(OOC(=O)c1ccccc1)c1ccccc1` [benzoyl peroxide], the minimum inhibitory concentration (MIC) against S. aureus ATCC 29213 [1] (Table 5 (Example 5)) is 250 µg/mL (≈ 1030 µM); in the assay with S. aureus ATCC 29213 [1] (setting [8]), 250 µg/mL (≈ 1030 µM); against P. acnes NCTC 737 [4] (setting [11]), 15.6 µg/mL (≈ 64.4 µM); in the assay with P. acnes NCTC 737 [4] (setting [12]) it was 31.2 µg/mL (≈ 129 µM). Besides, the MBC in the assay on S. aureus ATCC 29213 [2] (Table 5 (Example 5)) was 250 µg/mL (≈ 1030 µM); with S. aureus ATCC 29213 [2] (setting [9]), 250 µg/mL (≈ 1030 µM); in the assay on P. acnes NCTC 737 [5] (setting [11]), 31.2 µg/mL (≈ 129 µM); in the assay on P. acnes NCTC 737 [5] (setting [12]), 62.5 µg/mL (≈ 258 µM). Further, the DDA in the assay with S. aureus ATCC 29213 [3] (setting [10]) was 11.03 mm; in the assay on S. aureus ATCC 29213 [3] (Table 6 (Example 5), zone diameter, 200 μg per disc), 9.61 mm; with P. acnes NCTC 737 [6] (Table 7, zone diameter) it was 24.25 mm; in the assay on P. acnes NCTC 737 [6] (Table 10 (Example 8), zone diameter) it was 19.25 (±0.18) mm.

Turning to `Cc1c(O)ccc(O)c1C` [2,3-dimethyl-p-hydroquinone], the MIC against S. aureus ATCC 29213 [1] (Table 1 (Example 1)) and in the assay on P. acnes NCTC 737 [4] (setting [13]) was 7.8 µg/mL (≈ 56.5 µM) in each case. In addition, the MBC with S. aureus ATCC 29213 [2] (Table 1 (Example 1)) is 7.8 µg/mL (≈ 56.5 µM); with P. acnes NCTC 737 [5] (setting [13]), 15.6 µg/mL (≈ 113 µM). Further, the DDA was determined as 33.41 mm with S. aureus ATCC 29213 [3] (setting [10]) and 18.75 mm in the assay with P. acnes NCTC 737 [6] (Table 7, zone diameter). Besides, in the assay on P. acnes NCTC 737 [7], the SDDA area increase turned out to be 113.68%. The SDDA increase in the assay on P. acnes NCTC 737 [7] came to 10.63 mm. For the same compound, the “SDDA with BP” value in the assay on P. acnes NCTC 737 [7] stood at 33.65 mm.

Regarding `CC1=CC(=O)C(C(C)C)=CC1=O` [thymoquinone, 2-iso-propyl-5-methyl-p-benzoquinone], the MIC turned out to be 7.8 µg/mL (≈ 47.5 µM) with S. aureus ATCC 29213 [1] (setting [8]) and 15.6 µg/mL (≈ 95 µM) in the assay on P. acnes NCTC 737 [4] (setting [14]). Further, the MBC is 15.6 µg/mL (≈ 95 µM) in the assay with S. aureus ATCC 29213 [2] (setting [9]) and 31.2 µg/mL (≈ 190 µM) in the assay on P. acnes NCTC 737 [5] (setting [15]). Moreover, the DDA in the assay with S. aureus ATCC 29213 [3] (setting [10]) is 15.64 mm; with P. acnes NCTC 737 [6] (Table 7, zone diameter), 27.46 mm. Besides, the SDDA area increase in the assay on P. acnes NCTC 737 [7] is recorded as 79.46%. For the same compound, the SDDA increase in the assay on P. acnes NCTC 737 [7] is recorded as 9.33 mm. Moreover, the “SDDA with BP” value with P. acnes NCTC 737 [7] was found to be 36.79 mm.

`O=C1C=CC(=O)C=C1` [p-benzoquinone] returned a DDA with S. aureus ATCC 29213 [3] (setting [10]) of 29.34 mm. Besides, the MIC with P. acnes NCTC 737 [4] (setting [14]) was 62.5 µg/mL (≈ 578 µM). The MBC with P. acnes NCTC 737 [5] (setting [15]) turned out to be 62.5 µg/mL (≈ 578 µM). The DDA in the assay on P. acnes NCTC 737 [6] (Table 7, zone diameter) is 24.87 mm. Besides, in the assay on P. acnes NCTC 737 [7], the SDDA area increase stood at 77.78%, the SDDA increase was 8.29 mm and the “SDDA with BP” value was found to be 33.16 mm.

Usually MIC stands for the smallest concentration in the dilution series that meets the test's criterion for growth inhibition. As usually defined, the MBC is the lowest tested concentration that kills the bacteria rather than only halting them.
